From patent publication EP4763845A1, “CYANO AROMATIC RING DERIVATIVE AND PHARMACEUTICAL USE THEREOF” (Haisco Pharmaceutical Group Co., Ltd., priority 2023, dated 2025)
Like-named read-outs stand apart in the source and are kept apart here. Each block holds one molecule with its values, some of them ahead of it.

Tests used:
[1] = Pharmacokinetic test in mice; type: in vivo, ICR mice; conditions: i.g. (5 mg/kg); for AUC(0-t): mouse, plasma, po
Experimental: (§1) Experimental objective: In this experiment, a single dose of the test compound was administered to ICR mice via intravenous administration and intragastric gavage, and the concentration of the test compound in plasma of the mice was measured to evaluate the pharmacokinetic profile of the test compound in the mice.
Experimental animals: Male ICR mice, 6 mice/compound, purchased from Chengdu Ddossy Experimental Animals Co., Ltd.
(§2) Experimental method: On the day of the experiment, 6 SD mice were randomly grouped according to their body weights. The animals were fasted with water available for 12 to 14 h one day before the administration, and were fed 4 h after the administration. Table 6 Administration information of pharmacokinetic test in mice
Sampling: Before and after the administration, 0.15 mL of blood was taken from the orbits under isoflurane anaesthesia, and placed in an EDTAK2 centrifuge tube. Centrifugation was carried out at 5000 rpm at 4°C for 10 min, and the plasma was collected.
The plasma collection time points for PO groups were 0, 5 min, 15 min, 30 min, 1 h, 2 h, 4 h, 7 h, 24 h, and 48 h.
The plasma collection time points for IV groups were 0, 5 min, 15 min, 30 min, 1 h, 2 h, 4 h, 7 h, 24 h, and 48 h.
Before analysis and detection, all samples were stored at -60°C. The samples were analysed quantitatively by LC-MS/MS. Table 7 Pharmacokinetic parameters of compounds of the present invention in plasma of mice

VCaP cells = experiment: VCaP cell proliferation inhibition experiment (CellTiter-Glo); type: cell-based; conditions: Homo sapiens, 168 h
Experimental: After centrifugation and resuspension, viable cell counting was performed using a Vi-Cell XR cell counter. […] Then, 180 µl of the cell suspension was added per well to a 96-well cell culture plate at a cell density of 7,500 cells/well. At the time of seeding, T0 wells were also prepared. The following day, R1881 at a final concentration of 0.1 nM and compounds at various concentrations were added. The plate was placed back into the incubator and cultured for an additional 7 days. At the time of compound addition, the T0 plate was measured using the CellTiter-Glo (CTG) kit (Promega, Cat. No. G7572) and recorded as RLU0. Following incubation, 75 µl of pre-thawed and room temperature-equilibrated CellTiter-Glo solution was added to each well. […] The results were processed according to Equation (2). […] Growth% = (RLUcompound−RLU0)/(RLUcontrol−RLU0) × 100% [formula]

[2] = Pharmacokinetic test in rats; type: in vivo, SD rats; conditions: i.g. (5 mg/kg); for AUC(0-t): rat, po
Experimental: as §1, with “SD rats” for “ICR mice”, “rats” for “mice”, “rats.” for “mice.”
Experimental animals: Male SD rats, 200-220 g, 6 rats/compound, purchased from Chengdu Ddossy Experimental Animals Co., Ltd.
as §2, with “SD rats” for “SD mice”, “Table 3” for “Table 6”, “in rats” for “in mice”
Sampling: Before and after the administration, 0.1 mL of blood was taken from the orbits under isoflurane anaesthesia, and placed in an EDTAK2 centrifuge tube. Centrifugation was carried out at 5000 rpm at 4°C for 10 min, and the plasma was collected.
The plasma collection time points for IV&PO groups were 0, 5 min, 15 min, 30 min, 1 h, 2 h, 4 h, 7 h, 24 h, and 48 h.
Before analysis and detection, all samples were stored at -60°C. The samples were analysed quantitatively by LC-MS/MS. Table 4 Pharmacokinetic parameters of compounds of the present invention in plasma of rats

hERG potassium channel = target: T1, hERG potassium channel (Homo sapiens, UniProt Q12809); experiment: hERG potassium ion channel test (manual patch-clamp, CHO cells); type: cell-based; conditions: inhibitory activity against hERG potassium channel current, CHO cells, whole cell patch-clamp, read-out: IC50
T1 construct: expressed in transfected cells; host or cells: CHO cells stably expressing hERG
Text: Experimental platform: Electrophysiological manual patch-clamp system
Cell line: Chinese hamster ovary (CHO) cell lines stably expressing hERG potassium ion channel
Experimental method: In Chinese Hamster Ovary (CHO) cells stably expressing hERG potassium channel, whole cell patch-clamp technique was used to record hERG potassium channel current at room temperature. The glass microelectrode was made of a glass electrode blank (BF150-86-10, Sutter) by a puller. The tip resistance after filling the liquid in the electrode was about 2-5 MΩ. The glass microelectrode can be connected to the patch-clamp amplifier by inserting the glass microelectrode into an amplifier probe. The clamping voltage and data recording were controlled and recorded by the pClamp 10 software through a computer. The sampling frequency was 10 kHz, and the filtering frequency was 2 kHz. After the whole cell records were obtained, the cells were clamped at -80 mV, and the step voltage that induced the hERG potassium current (I hERG) was depolarised from -80 mV to +20 mV for 2 s, then repolarised to -50 mV, and returned to -80 mV after 1 s. This voltage stimulation was given every 10 s, and the administration process was started after the hERG potassium current was confirmed to be stable (at least 1 minute). The compound was administered for at least 1 minute at each test concentration, and at least 2 cells (n ≥ 2) were tested at each concentration.
Data processing: Data analysis processing was carried out by using pClamp 10, GraphPad Prism 5 and Excel software.
Compound IC50 was calculated using GraphPad Prism 5 software by fitting according to the following equation: Y = Bottom + (Top−Bottom)/(1+10^(∧)((LogIC50−X)*HillSlope)) [formula] where X represents the Log value of the tested concentration of the test sample, Y represents the inhibition percentage at the corresponding concentration, and Bottom and Top represent the minimum and maximum inhibition percentage, respectively.

AR protein = target: T2, AR protein (Homo sapiens, UniProt P10275); experiment: Detection of AR degradation in VCaP cells (automated western blot); type: cell-based; conditions: degradation of AR protein in VCaP cells, 24 hours incubation; read-out: DC50
T2 construct: VCap is a human prostate cancer cell line purchased from ATCC; host or cells: VCaP human prostate cancer cells
T2 sequence (P10275 1-920): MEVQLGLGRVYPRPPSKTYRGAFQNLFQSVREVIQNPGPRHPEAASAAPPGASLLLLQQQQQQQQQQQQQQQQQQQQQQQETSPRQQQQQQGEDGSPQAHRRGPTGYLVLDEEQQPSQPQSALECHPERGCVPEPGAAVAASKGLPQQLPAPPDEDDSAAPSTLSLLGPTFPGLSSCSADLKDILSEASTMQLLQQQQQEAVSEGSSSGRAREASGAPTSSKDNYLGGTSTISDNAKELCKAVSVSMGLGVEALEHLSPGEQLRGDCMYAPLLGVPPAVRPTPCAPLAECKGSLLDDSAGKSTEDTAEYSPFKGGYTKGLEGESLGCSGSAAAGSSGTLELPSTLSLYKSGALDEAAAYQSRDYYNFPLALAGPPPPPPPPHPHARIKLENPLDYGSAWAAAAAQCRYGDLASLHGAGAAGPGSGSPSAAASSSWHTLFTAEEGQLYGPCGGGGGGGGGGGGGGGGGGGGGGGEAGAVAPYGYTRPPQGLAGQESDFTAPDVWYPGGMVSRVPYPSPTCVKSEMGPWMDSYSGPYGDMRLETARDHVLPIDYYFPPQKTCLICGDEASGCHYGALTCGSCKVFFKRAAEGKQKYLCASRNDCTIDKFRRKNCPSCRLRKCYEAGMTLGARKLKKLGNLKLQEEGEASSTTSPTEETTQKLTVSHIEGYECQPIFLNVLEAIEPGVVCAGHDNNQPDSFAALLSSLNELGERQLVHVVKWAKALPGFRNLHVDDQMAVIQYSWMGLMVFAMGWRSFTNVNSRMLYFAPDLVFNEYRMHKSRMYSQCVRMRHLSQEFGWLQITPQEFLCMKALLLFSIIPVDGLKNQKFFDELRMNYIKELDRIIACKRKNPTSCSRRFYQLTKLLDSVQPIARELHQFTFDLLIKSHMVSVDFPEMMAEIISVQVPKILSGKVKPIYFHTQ
Experimental: VCap is a human prostate cancer cell line purchased from ATCC and cultured under the following conditions: DMEM + 10% FBS + 1% penicillin-streptomycin solution. The cells were cultured in a 37°C, 5% CO2 incubator. The cells were seeded in a 6-well plate, with 5 × 10^5 cells/well. After seeding, compounds at various concentrations were added, and the plate was incubated for 24 hours in the 37°C, 5% CO2 incubator. Following incubation, the cells were harvested and RIPA lysis buffer (beyotime, Cat. P0013B) was added. The cells were lysed on ice for 15 minutes and centrifuged at 12,000 rpm at 4°C for 10 minutes. The supernatant protein samples were collected and the protein was quantified using the BCA kit (Beyotime, Cat. P0009). Then the protein was diluted to 0.25 mg/mL. The expressions of AR (CST, Cat.5153S) and the internal reference β-actin (CST, Cat. 3700S) were detected using a fully automated western blot quantitative analyser (Proteinsimple). Using the "Compass for SW" software, the relative peak area of AR was calculated when the internal reference area was 10,000. The proportion of AR relative to the solvent control group at various drug concentrations was calculated according to Equation (1), where ARtreat represents the relative peak area of the compound-treated group, and ARsolvent represents the relative peak area of the solvent control group. The processed data obtained from Equation (1) were analysed using GraphPad Prism 8.3.0 software, and the DC50 value was calculated using a four-parameter nonlinear regression model. The degradation rate at a specified concentration was determined as 100-AR%. AR% = ARtreat/ ARsolvent × 100% [formula]

[3] = Vehicle 3: 5% DMSO+5% Solutol+90% (20% SBE-β-CD)
[4] = Vehicle 1: 5% DMSO+5% Solutol+30% PEG400+60% (20% SBE-CD)
[5] = vehicle 5% DMSO+5% Solutol+90% (20% SBE-β-CD)

T1 sequence (Q12809 whole entry): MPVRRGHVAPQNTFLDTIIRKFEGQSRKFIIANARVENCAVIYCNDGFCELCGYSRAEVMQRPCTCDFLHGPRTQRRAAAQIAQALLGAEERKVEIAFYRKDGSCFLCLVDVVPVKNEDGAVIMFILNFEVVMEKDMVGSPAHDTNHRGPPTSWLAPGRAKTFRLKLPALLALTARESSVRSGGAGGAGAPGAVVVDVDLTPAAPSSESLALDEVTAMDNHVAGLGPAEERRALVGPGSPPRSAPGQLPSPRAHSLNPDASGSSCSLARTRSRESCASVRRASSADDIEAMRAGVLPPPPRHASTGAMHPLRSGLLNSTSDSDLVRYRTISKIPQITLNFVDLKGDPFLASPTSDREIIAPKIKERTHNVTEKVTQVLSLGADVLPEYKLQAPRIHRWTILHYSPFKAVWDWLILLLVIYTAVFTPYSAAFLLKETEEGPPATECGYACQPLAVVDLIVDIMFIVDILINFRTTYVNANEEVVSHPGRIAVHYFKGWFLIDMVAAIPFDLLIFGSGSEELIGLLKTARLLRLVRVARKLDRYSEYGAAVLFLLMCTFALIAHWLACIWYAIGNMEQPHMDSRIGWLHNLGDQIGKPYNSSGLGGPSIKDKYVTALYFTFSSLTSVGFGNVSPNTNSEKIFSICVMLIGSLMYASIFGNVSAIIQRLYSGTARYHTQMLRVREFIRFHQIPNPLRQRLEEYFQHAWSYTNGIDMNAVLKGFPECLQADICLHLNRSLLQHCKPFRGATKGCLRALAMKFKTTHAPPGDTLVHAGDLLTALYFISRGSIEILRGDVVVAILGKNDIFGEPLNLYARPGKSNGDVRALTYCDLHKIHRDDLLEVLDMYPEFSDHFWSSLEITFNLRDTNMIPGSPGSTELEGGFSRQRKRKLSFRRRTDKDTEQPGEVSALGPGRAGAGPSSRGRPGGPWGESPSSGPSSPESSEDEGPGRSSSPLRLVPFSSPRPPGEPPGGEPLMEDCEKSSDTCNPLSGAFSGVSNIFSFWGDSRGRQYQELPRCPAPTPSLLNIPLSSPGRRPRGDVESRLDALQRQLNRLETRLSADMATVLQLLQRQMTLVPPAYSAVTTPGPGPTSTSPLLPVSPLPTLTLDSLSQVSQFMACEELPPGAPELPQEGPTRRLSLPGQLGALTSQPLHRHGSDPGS

SMILES: COc1cc(O[C@H]2C(C)(C)[C@H](NC(=O)c3ccc(N4CCC(CN5CCN6c7cc(F)c(N8CCC(=O)NC8=O)cc7CC[C@@H]6C5)CC4)nc3)C2(C)C)ccc1C#N [Trifluoroacetate of compound 66]
AUC(0-t) [1, 3]: 30400 ± 9310 ng·h/mL | GI50 (VCaP cells): < 300 nM

SMILES: COc1cc(O[C@H]2C(C)(C)[C@H](NC(=O)c3ccc(N4CCC(CN5CCN6c7cc(F)c(C8CCC(=O)NC8=O)cc7CC[C@@H]6C5)CC4)cc3)C2(C)C)ccc1C#N (some centres unmarked) [Compound 2]
F ([2]; vehicle 5% DMSO+ 5% Solutol+30% PEG-400+60% (20% SBE-β-CD)): 61.4+9.1% | AUC(0-t) ([2]; in vivo, vehicle 5% DMSO+ 5% Solutol+30% PEG-400+60% (20% SBE-β-CD)): 6010 ± 889 ng·h/mL

F [1, 4]: 63.4±3.3% | AUC(0-t) ([1]; male, ICR, Vehicle 1: 5% DMSO+5% Solutol+30% PEG400+60% (20% SBE-CD)): 20700 ± 1080 ng·h/mL | GI50 (VCaP cells): > 2000 nM | F [2, 5]: 26.9±3.2% | AUC(0-t) ([2]; male, SD, plasma, vehicle 5% DMSO+5% Solutol+90% (20% SBE-β-CD)): 2870 ± 338 ng·h/mL
SMILES: COc1cc(O[C@H]2C(C)(C)[C@H](NC(=O)c3ccc(N4CCC(CN5CCN(c6ccc(C(=O)N[C@H]7CCC(=O)NC7=O)c(F)c6)CC5)CC4)cc3)C2(C)C)ccc1C#N [Control compound, reference compound]

DC50 (AR protein): < 100 nM | GI50 (VCaP cells): < 300 nM | AUC(0-t) ([2]; male, SD, plasma, vehicle 5% DMSO+5% Solutol+10% PEG400+80% (20% SBE-β-CD)): 6970 ng·h/mL
SMILES: COc1cc(O[C@H]2C(C)(C)[C@H](NC(=O)c3ccc(N4CCC5(CC4)CC(N4CCN6c7cc(F)c(N8CCC(=O)NC8=O)cc7CC[C@@H]6C4)C5)cc3)C2(C)C)ccc1C#N [Compound 79]
IC50 (hERG potassium channel; human, CHO cells stably expressing hERG potassium channel): > 40 µM

SMILES: CC1(C)[C@H](NC(=O)c2ccc(N3CCC(CN4CCN5c6cc(F)c(N7CCC(=O)NC7=O)cc6CC[C@@H]5C4)CC3)cc2)C(C)(C)[C@H]1Oc1ccc(C#N)c2ncccc12 [Compound 32]
AUC(0-t) [1, 3]: 30900 ± 6080 ng·h/mL | DC50 (AR protein): < 100 nM

SMILES: COc1cc(O[C@H]2C(C)(C)[C@H](NC(=O)c3ccc(N4CCC(CN5CCN6c7cc(F)c(C8CCC(=O)NC8=O)cc7CC[C@H]6C5)CC4)cc3)C2(C)C)ccc1C#N (some centres unmarked) [Compound 1]
GI50 (VCaP cells): < 300 nM | F [2, 5]: 46.5±8.6% | AUC(0-t) ([2]; in vivo, vehicle 5% DMSO+5% Solutol+90% (20% SBE-β-CD)): 5490 ± 1010 ng·h/mL

SMILES: COc1cc(O[C@H]2C(C)(C)[C@H](NC(=O)c3ccc(N4CCC(CN5CCN6c7cc(F)c(C(=O)N[C@H]8CCC(=O)NC8=O)cc7CC[C@H]6C5)CC4)cc3)C2(C)C)ccc1C#N [Compound 13]
AUC(0-t) [1, 4]: 33500 ± 1680 ng·h/mL | DC50 (AR protein): < 100 nM

SMILES: CC1(C)[C@H](NC(=O)c2ccc(N3CCC(CN4CCN5c6cc(F)c(C7CCC(=O)NC7=O)cc6CC[C@@H]5C4)CC3)cc2)C(C)(C)[C@H]1Oc1ccc(C#N)c2ncccc12 (some centres unmarked) [Compound 30]
IC50 (hERG potassium channel; chinese hamster): > 40 µM | AUC(0-t) [1, 3]: 33000 ± 9330 ng·h/mL | DC50 (AR protein): < 100 nM
